# According to patent US8501183B2, “Immunogenic compositions and diagnostic and therapeutic uses thereof” (The Walter and Eliza Hall Institute of Medical Research, priority 2002, dated 2013):
# Assays:
# [1] = test system: human antibody responses to the native GPI toxin; test: Competition ELISA, synthetic glycan vs GPI; format: binding; details: competitor in molar excess
# [2] = test system: anti-Glycan antibodies in human serum; test: ELISA of human serum against synthetic glycan antigen; format: binding; details: serum of a malaria-exposed Papua New Guinean donor; BSA-conjugated glycan
# [3] = IgG response of mice immunized with synthetic GPI glycan conjugate; format: in vivo; details: rodents
# Procedure: All experiments were in accordance with local Animal Ethics Committee regulations. Young adult C57BL6 mice from Jackson Laboratories were pre-bled and inoculated with 6.5 μg KLH-glycan (0.176 μg glycan, n=16) or KLH-cysteine (sham-immunized, n=24) emulsified in Freund's Complete Adjuvant, and boosted with equal amounts of immunogen in Incomplete Freund's Adjuvant at 2 weekly intervals. After two boosts they were rested and injected i.p with 1×10^6 P. berghei ANKA-infected erythrocytes. Naïve mice (n=12) served as unimmunized controls. Parasitemias were assessed from Giemsa-stained thin films. Mortality was checked twice daily. Mice were judged as developing cerebral malaria if displaying neurological signs such as loss of reflex or ataxia, and dying between days 5 to 12 post-infection with relatively low parasitemia levels (below 15%). Differences in survival curves of P. berghei infected mice across this time-period were assessed by Cox-Mantel logrank transformation on Kaplan-Meier plots. Deaths from day 14 onwards with high parasitaemia (>60%) and low rates of cerebral vascular occlusion were ascribed to hyperparasitaema/haemolysis, and all animals failing to develop cerebral malaria eventually succumbed to this syndrome.
# The synthetic malarial GPI glycan was immunogenic in rodents. […] No reactivity to GPI glycan was detected in pre-immune sera or in animals receiving sham-conjugated KLH. […]
# [4] = format: in vivo, C3H/HeJ and C57B16 mice; details: primed with 20 mg D-galactosamine, agent after 1 hour
# Procedure: In addition a standard murine model of TNF-driven lethality was used to determine whether GPI mediates parasite-induced acute toxic shock. This model manifests disseminated intravascular coagulation, peripheral vascular failure and shock, and thus has clinical features in common with the human “algid malaria” syndrome. LPS-non-responsive C3H/HeJ and C57B16 mice were primed with 20 mg D-galactosamine followed after 1 hour by purified GPI, PE or PBS alone.
# [5] = test system: P. berghei ANKA; test: P. berghei ANKA cerebral malaria challenge of immunized mice; format: in vivo, C57Bl/6 mice
# Source text: Mice were immunized by three successive boosts of free intact malarial GPI emulsified in Incomplete Freund's Adjuvant spaced two weeks apart. Control mice received an equal amount of IFA alone. After immunization, sera were bled and the titres of anti-GPI antibodies determined by ELISA. All animals immunized with GPI developed broadly similar levels of anti-GPI antibodies (range 1/1024-1/4096) among individual animals. […] Two weeks after the final boost mice were challenged with P. berghei ANKA. Parasitaemia, the development of neurological complications, and mortality were recorded daily. No difference in parasitaemia was observed. In the control group, 100% of animal manifested between day 5 and 9 an aggressive cerebral syndrome with neurological signs proceeding to rapid death with 12 hours. […]
# The P. berghei ANKA murine cerebral malaria model has many features in common with the human cerebral malaria syndrome. […] Parasitaemia, the development of neurological complications, and mortality were recorded daily. […]
# [6] = Competition / PI-specific ELISA, epitope mapping of anti-GPI antibodies; format: binding; details: sera of mice immunized with free GPI
# Procedure: Coupling of the purified GPI glycan to proteins was undertaken as above. To measure anti-lipid reactivities, we utilized commercially available phosphatidylinositol from Sigma with identical composition to the malarial GPI, namely dipalmitoyl-PI. 2 mg PI was coupled to defatted BSA according to published protocols (Bate, C. A. W., Taverne, J., Kwiatkowski, D., and Playfair, J. H. L. (1993) Immunology 79:138-145).
# From a 1/32 dilution, sera or mAbs were titrated two-fold in 1% BSA in PBS, 0.05% Tween-20, and pre-incubated for 4 hours at room temperature with a molar excess of competitior (20 μg/ml PI, or phosphatidylserine (PS), or diluent alone). Antigen (BSA-PI or BSA alone) at 20 μg/ml in phosphate binding buffer was incubated overnight in 50 μl volumes in flat-bottomed Immunlon 96-well plates, followed by extensive washing with buffer. The plates were blocked with 1% BSA in PBS for several hours. 50 μl aliquots of titrated antibody with or without competitor were incubated in triplicate for 2 hours at room temperature, followed by extensive washing with 1% BSA 0.05% Tween-20 in PBS. An aliquot of affinity purified, biotin-labelled isotype specific goat anti-mouse second antibody was incubated as above, followed by further washing and the addition of streptavidin-alkaline phosphatase. […] Background binding to BSA-coated plates was determined in parallel. […]
# [7] = ELISA titres of anti-GPI antibodies in sera of immunized mice; format: in vivo; details: mice immunized with free GPI in IFA
# Procedure: Antigen (GPI-OVA, Glycan-OVA, BSA-PI, OVA or BSA alone) at 20 μg/ml in phosphate binding buffer was incubated overnight in 50 μl volumes in flat-bottomed Immunlon 96-well plates, followed by extensive washing with buffer. The plates were blocked with 1% BSA, 1% OVA in PBS for several hours. From a 1/32 dilution, sera were titrated two-fold in 1% BSA, 1% OVA in PBS, and 50 μl aliquots incubated in triplicate for 2 hours at room temperature, followed by extensive washing with 1% BSA, 1% OVA 0.05% Tween-20 in PBS. An aliquot of affinity purified, biotin-labelled isotype specific goat anti-mouse second antibody was incubated as above, followed by further washing and the addition of streptavidin-alkaline phosphatase. After 30 minutes the plates were washed again and colourimetric development initiated by the addition of p-Nitrophenylphosphate in diethanolamine buffer. Background binding to BSA/OVA-coated plates was determined in parallel. […]
# Mice were immunized by three successive boosts of free intact malarial GPI emulsified in Incomplete Freund's Adjuvant spaced two weeks apart. […] After immunization, sera were bled and the titres of anti-GPI antibodies determined by ELISA. […] Parasitaemia, the development of neurological complications, and mortality were recorded daily. […]
Substance,competition of human antibody responses to native GPI [1],detection of antibodies in human serum [2],immunogenicity [3],recipients with lethal shock [4] [%],"parasitaemia ([5]; after P. berghei ANKA challenge two weeks after final boost, vs control groups)","rate of deaths ([5]; free GPI in IFA vs IFA alone, P. berghei ANKA challenge)",epitope specificity of the antibody response [6],isotype of the anti-GPI response [7]
"NH2—CH2—CH2—PO4-(Manα1-2)6Manα1-2Manα1-6Manα1-4GlcNH2α1-6myo-Insositol-1,2 cyclic phosphate [synthetic GPI glycan]",compete out the majority of human antibody responses to the native GPI toxin,able specifically to detect anti-Glycan antibodies in human serum,immunogenic,,,,,
NH—CH2—CH2—PO4-(Manα1-2)-6Manα1-2Manα1-6Manα1-4GlcN-H2α1-6(myristoyl)-myo-Inositol-1-PO4-dipalmitoylglycerol [free GPI],,,,100,No difference,noticeable faster rate,"directed predominantly towards the lipidic (phosphatidylinositol, PI) domain of the molecule",predominantly IgM
